Source: patent publication US5945436A, “Pyridylmethyl nitriles, amides and thioamides useful as fungicides” (Uniroyal Chemical Company, Inc., priority 1997, dated 1999)

Assays:
Erysiphe graminis = test: Powdery mildew of barley, systemic root uptake (BMS); type: in vivo; conditions: 45 ml of 250 mg/l, 8 days after inoculation
Description: Compositions containing Compounds Nos. 1-81 were prepared by dissolving 0.24 grams of each of the compounds in 8 ml of acetone or other suitable inert solvent. Each of the resultant solutions was treated with 3 drops of TWEEN 20 (ethoxylated ethylene sorbitan monolaurate, a non-ionic surfactant)(I.C.I.), and water was added to form an emulsion. The degree of dilution with water was dictated by the desired concentration of the compound in the composition. The greater the quantity of water added, the lower the concentration of the compound in the composition, reported in milligrams per liter (mg/l) […] Upon reaching these ages, the plants were either treated with 45 ml of 250 mg/l concentration of the compositions of Example 9 or were left untreated. The untreated plants were used as controls. The 45 ml compositions saturated the soil of the treated pots without significant loss through drainage into the saucers below the pots. Twenty-four hours after the treatment with the compositions, both the barley and cucumber plants in all the pots, those treated and those untreated, were inoculated with powdery mildew fungus. This was accomplished by tapping leaves of previously infected barley and cucumber plants over the treated and untreated pots containing the barley and cucumber plants, respectively, to distribute spores of the fungus over the plants tested. […] Intermediate ratings were assigned depending on the degree of disease. […] The results of the powdery mildew disease control of barley are reported under the heading of "BMS". The results for cucumber mildew control are reported under the heading "CMS".

Erysiphe polygoni = test: Powdery mildew on pinto bean, foliar application (ERY POL); type: in vivo; conditions: similar procedure as barley (1,000 mg/l); for pest or weed control at 1000 µg/mL: Erysiphe polygoni, read-out: Percent Reduction of Disease, ERY POL
Description: Compositions containing Compounds Nos. 1-81 were prepared by dissolving 0.24 grams of each of the compounds in 8 ml of acetone or other suitable inert solvent. Each of the resultant solutions was treated with 3 drops of TWEEN 20 (ethoxylated ethylene sorbitan monolaurate, a non-ionic surfactant)(I.C.I.), and water was added to form an emulsion. The degree of dilution with water was dictated by the desired concentration of the compound in the composition. The greater the quantity of water added, the lower the concentration of the compound in the composition, reported in milligrams per liter (mg/l) Ten plants of "Robust" variety barley were planted in each of a plurality of pots. Each pot was then either sprayed with one of the compositions of Example 9, at a composition concentration of 1,000 mg/l, or left unsprayed. For each pot sprayed, one pot was left unsprayed as a control. After the leaves of the sprayed pots were dried, the sprayed pots and the unsprayed control pots were placed in a greenhouse maintained at 21° C. All the pots were then inoculated with barley powdery mildew fungus, Erysiphe graminis. This inoculation was accomplished by distributing spores of the fungus over the leaves of the plants to be tested from plants which had previously been infected with the mildew disease. […] Again, percent control was computed by comparing the treatment scores with the scores of the untreated controls. The results are summarized in Table II under the heading "ERY GRA". Using a similar procedure as described above for the barley, pinto bean plants were prepared, treated and inoculated with the fungus Erysiphe polygoni. The results of this testing are summarized in Table II under the heading "ERY POL".

[1] = tested on: Cercosporidium personatum; test: Fungal germination and growth, treated disc on agar, scored (CER PER); type: cell-based; parameters: key: 100: Complete inhibition of germination and growth.; 80: Nearly complete inhibition but some growth.; 50: Partial inhibition of growth or, early complete inhibition but later growth begins.; 20: Some inhibition of growth, but not significant.; 0: No inhibition of growth; conditions: disc dipped in 500 mg/l, 29° C., numerical score 0-100, spore suspension
From the text: Filter paper discs, each 11 mm. in diameter, were dipped in each of the test solutions. The discs were allowed to air dry to drive off the acetone solvent. A number of untreated discs were used as controls. The treated and untreated discs were then placed on agar plates and one of the following fungus species: Septoria nodorum (SEP NOD), Botrytis cinerea (BOT CIN), Fusarium oxysporum (FUS OXY), Pythium ultimum ([…]), Rhizoctonia solani (RHI SOL), Colletotrichum gossypii (COL GOS), and Scierotinia minor (SCL MIN), was added to the center of each disc in the form of a culture plug with the fungus mat in contact with the paper of the test disc. Cercosporidium personatum (CER PER), was added to discs as a spore suspension (20,000 spores/ml) to the disc (two drops of spore suspension per disc), rather than a mycelial culture plug. The plates were then incubated at 29° C. in an oven. In the case of the Cercosporidium personatum (CER PER) fungi, scoring was done on a numerical basis as follows: 100=Complete inhibition of germination and growth. 80=Nearly complete inhibition but some growth. 50=Partial inhibition of growth or, early complete inhibition but later growth begins. 20=Some inhibition of growth, but not significant. 0=No inhibition of growth. The results of all the above tests appear in Table III below under the headings "SEP NOD," "BOT CIN," "FUS OXY," "[…]" "COL GOS" and "CER PER".

Pythium ultimum = test: Fungal growth inhibition, treated disc on agar (PYT ULT); type: cell-based; conditions: disc dipped in 500 mg/l, 29° C.; for inhibition at 500 µg/mL: Globisporangium ultimum, read-out: Percent Growth Inhibition, PYT ULT
Description: (§1) The treated and untreated discs were then placed on agar plates and one of the following fungus species: Septoria nodorum (SEP NOD), Botrytis cinerea (BOT CIN), Fusarium oxysporum (FUS OXY), Pythium ultimum (PYT ULT), Rhizoctonia solani (RHI SOL), Colletotrichum gossypii (COL GOS), and Scierotinia minor (SCL MIN), was added to the center of each disc in the form of a culture plug with the fungus mat in contact with the paper of the test disc. Cercosporidium personatum (CER PER), was added to discs as a spore suspension (20,000 spores/ml) to the disc (two drops of spore suspension per disc), rather than a mycelial culture plug. The plates were then incubated at 29° C. in an oven.
(§2) With the exception of the discs containing Cercosporidium personatum, the discs were evaluated by first measuring the radius from the center of the fungus colony on the treated discs and on the untreated discs. Percent growth inhibition of each of the compounds tested was determined as a function of the difference between the radius of the fungus colony on the treated disc versus the radius of the fungus colony on the untreated disc.

Scierotinia minor = test: Fungal growth inhibition, treated disc on agar (SCL MIN); type: cell-based; conditions: disc dipped in 500 mg/l, 29° C.; for inhibition at 500 µg/mL: read-out: Percent Growth Inhibition, SCL MIN
Fusarium oxysporum = test: Fungal growth inhibition, treated disc on agar (FUS OXY); type: cell-based; conditions: disc dipped in 500 mg/l, 29° C.; for inhibition at 500 µg/mL: Fusarium oxysporum, read-out: Percent Growth Inhibition, FUS OXY
Colletotrichum gossypii = test: Fungal growth inhibition, treated disc on agar (COL GOS); type: cell-based; conditions: disc dipped in 500 mg/l, 29° C.; for inhibition at 500 µg/mL: Colletotrichum gossypii, read-out: Percent Growth Inhibition, COL GOS
Description: as §1, §2

| SMILES | Percent Reduction of Disease, BMS (Erysiphe graminis) [%] | pest or weed control at 1000 µg/mL (Erysiphe polygoni) [%] | CER PER inhibition score [1] | inhibition at 500 µg/mL (Pythium ultimum) [%] | inhibition at 500 µg/mL (Scierotinia minor) [%] | inhibition at 500 µg/mL (Fusarium oxysporum) [%] | inhibition at 500 µg/mL (Colletotrichum gossypii) [%] | Percent Reduction of Disease, ERY POL (Erysiphe polygoni) [%] | Percent Growth Inhibition, PYT ULT (Pythium ultimum) [%] | Percent Growth Inhibition, SCL MIN (Scierotinia minor) [%] | Percent Growth Inhibition, FUS OXY (Fusarium oxysporum) [%] | Percent Growth Inhibition, COL GOS (Colletotrichum gossypii) [%] |
| --- | --- | --- | --- | --- | --- | --- | --- | --- | --- | --- | --- | --- |
| CCCCC(C#N)(Cc1ccc(C(C)(C)C)cc1)c1cccnc1 (stereo not shown) [Compound 19] | 35 | 100 | 100 | 93 | 100 | 100 | 91 |  |  |  |  |  |
| CCCC(C#N)(CCc1ccccc1)c1ccncc1 (stereo not shown) [Compound 25] | 0 | 17 | 0 | 0 | 86 | 63 | 72 |  |  |  |  |  |
| CCCCC(C#N)(CCc1ccccc1)c1ccncc1 (stereo not shown) [Compound 26] | 0 | 17 | 0 | 0 | 96 | 59 | 75 |  |  |  |  |  |
| C=CCC(C#N)(CCc1ccc(OC)cc1)c1ccccn1 (stereo not shown) [Compound 28] | 0 |  | 100 |  |  |  |  | 100 | 10 | 96 | 100 | 100 |
| COc1ccc(CCC(C#N)(CC(C)C)c2ccccn2)cc1 (stereo not shown) [Compound 29] | 0 |  | 100 |  |  |  |  | 100 | 0 | 94 | 97 | 95 |
| CCCCCC(C#N)(CCc1ccc(OC)cc1)c1ccccn1 (stereo not shown) [Compound 30] | 0 |  | 0 |  |  |  |  | 100 | 0 | 100 | 100 | 80 |
| CCCCC(C#N)(CCc1ccc(OC)cc1)c1ccccn1 (stereo not shown) [Compound 31] | 0 |  | 0 |  |  |  |  | 90 | 93 | 75 | 83 | 70 |
| N#CC(CCCc1ccc(Cl)cc1)(CC1CC1)c1ccccn1 (stereo not shown) [Compound 32] | 0 |  | 0 |  |  |  |  | 100 | 0 | 98 | 100 | 97 |
| C=CCC(C#N)(CCc1ccc(C)cc1)c1cccnc1 (stereo not shown) [Compound 33] | 40 | 100 | 0 | 50 | 100 | 100 | 100 |  |  |  |  |  |
| CCCCC(C#N)(CCc1ccc(C)cc1)c1cccnc1 (stereo not shown) [Compound 34] | 0 | 100 | 0 | 0 | 100 | 100 | 100 |  |  |  |  |  |
| CCCCC(C#N)(CCc1ccc(OCC)cc1)c1cccnc1 (stereo not shown) [Compound 35] | 0 | 100 | 0 |  |  |  | 97 |  | 0 | 88 | 30 |  |
| CCCCCCC(C#N)(CCc1ccc(OC)cc1)c1cccnc1 (stereo not shown) [Compound 36] | 0 | 100 | 0 | 75 | 100 | 80 | 0 |  |  |  |  |  |
| COc1ccc(CCC(C#N)(CC2CC2)c2cccnc2)cc1 (stereo not shown) [Compound 37] | 0 | 92 | 0 | 9 | 100 | 100 | 100 |  |  |  |  |  |
| C#CCC(C#N)(CCc1ccc(OC)cc1)c1cccnc1 (stereo not shown) [Compound 38] | 0 | 92 | 0 | 100 | 46 | 100 | 100 |  |  |  |  |  |
| CC(C)CC(C#N)(CCc1ccc(F)cc1)c1cccnc1 (stereo not shown) [Compound 39] | 0 | 92 | 0 | 44 | 42 | 30 | 75 |  |  |  |  |  |
| C=CCC(C#N)(CCc1ccc(OCC)cc1)c1cccnc1 (stereo not shown) [Compound 40] | 0 | 92 | 0 | 61 | 100 | 100 | 100 |  |  |  |  |  |
| C#CCC(C#N)(CCc1ccc(F)cc1)c1cccnc1 (stereo not shown) [Compound 41] | 0 | 100 | 0 | 9 | 48 | 30 | 100 |  |  |  |  |  |
| CCCCC(C#N)(CCc1ccc(OCC)cc1)c1cccnc1.Cl (stereo not drawn) [Compound 42, α-butyl-4-ethoxy-α-(3-pyridinyl)-benzenebutanenitrile hydrochloride] | 0 |  | 0 |  |  |  |  | 100 | 3 | 44 | 100 | 100 |
| CCOc1ccc(CCC(C#N)(CC(C)C)c2cccnc2)cc1 (stereo not shown) [Compound 43] | 0 | 92 | 100 | 36 | 100 | 100 | 94 |  |  |  |  |  |
